Experimental data published in ChEMBL document CHEMBL5120838, “Synthesis and biological evaluation of geniposide derivatives as inhibitors of hyperuricemia, inflammatory and fibrosis” (Eur J Med Chem, 2022).
The source made the active and inactive calls. No cut-off for these calls is given here.

Assays:
[1] = target: Xanthine dehydrogenase/oxidase (Bos taurus, UniProt P80457); experiment: Inhibition of bovine XOD assessed as inhibition of uric acid formation using xanthine as substrate preincubated with enzyme for 5 mins followed by substrate addition and measured for 30 mins by microplate reader analysis
Xanthine dehydrogenase/oxidase, sequence (P80457 whole entry): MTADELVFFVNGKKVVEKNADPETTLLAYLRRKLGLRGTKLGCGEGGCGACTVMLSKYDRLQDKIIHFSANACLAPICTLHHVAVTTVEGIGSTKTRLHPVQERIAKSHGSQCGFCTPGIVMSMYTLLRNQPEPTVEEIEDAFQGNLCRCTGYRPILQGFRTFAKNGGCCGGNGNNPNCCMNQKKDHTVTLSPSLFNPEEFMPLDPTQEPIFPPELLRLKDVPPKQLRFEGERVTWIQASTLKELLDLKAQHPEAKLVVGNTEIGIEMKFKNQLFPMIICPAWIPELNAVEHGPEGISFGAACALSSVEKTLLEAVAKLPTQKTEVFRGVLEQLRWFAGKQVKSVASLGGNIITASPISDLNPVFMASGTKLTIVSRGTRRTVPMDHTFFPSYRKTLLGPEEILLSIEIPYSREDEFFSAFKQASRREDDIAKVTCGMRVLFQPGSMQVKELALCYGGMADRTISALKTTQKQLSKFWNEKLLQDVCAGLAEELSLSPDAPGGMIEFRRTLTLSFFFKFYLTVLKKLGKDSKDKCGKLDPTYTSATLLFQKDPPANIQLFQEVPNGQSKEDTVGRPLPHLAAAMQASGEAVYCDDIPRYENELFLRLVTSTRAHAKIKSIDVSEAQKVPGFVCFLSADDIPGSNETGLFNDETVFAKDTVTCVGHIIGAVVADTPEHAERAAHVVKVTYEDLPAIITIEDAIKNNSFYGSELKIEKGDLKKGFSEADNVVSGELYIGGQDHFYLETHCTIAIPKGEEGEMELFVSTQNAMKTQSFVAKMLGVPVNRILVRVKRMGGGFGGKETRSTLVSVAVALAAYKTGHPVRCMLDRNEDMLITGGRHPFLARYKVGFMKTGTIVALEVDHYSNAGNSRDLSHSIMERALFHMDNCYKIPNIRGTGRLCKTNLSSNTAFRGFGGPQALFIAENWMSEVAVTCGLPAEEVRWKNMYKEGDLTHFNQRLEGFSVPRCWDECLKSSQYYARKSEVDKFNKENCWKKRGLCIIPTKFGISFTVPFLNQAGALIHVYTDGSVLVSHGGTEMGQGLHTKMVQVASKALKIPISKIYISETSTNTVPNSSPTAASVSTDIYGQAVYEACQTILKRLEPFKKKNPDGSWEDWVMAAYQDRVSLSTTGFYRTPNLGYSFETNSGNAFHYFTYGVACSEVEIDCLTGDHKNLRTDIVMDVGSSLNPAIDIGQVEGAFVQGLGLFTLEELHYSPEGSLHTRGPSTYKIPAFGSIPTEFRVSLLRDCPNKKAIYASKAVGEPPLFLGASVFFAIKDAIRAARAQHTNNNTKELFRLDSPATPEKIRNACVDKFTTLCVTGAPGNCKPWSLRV

Mus musculus [2] = experiment: Anti-hyperuricemic activity against adenine and potassium oxonate-induced hyperuricemia Kunming mouse model assessed as reduction in serum uric acid level at 20 mg/kg, po administered via gavage once daily for 2 weeks (reference value: 318.16 +/- 3.31 uM); type: functional
Mus musculus [3] = experiment: Anti-hyperuricemic activity against adenine and potassium oxonate-induced hyperuricemia Kunming mouse model assessed as reduction in serum creatinine level at 20 mg/kg, po administered via gavage once daily for 2 weeks (reference value: 87.62 +/- 0.67 uM); type: functional
Mus musculus [4] = experiment: Anti-hyperuricemic activity against adenine and potassium oxonate-induced hyperuricemia Kunming mouse model assessed as blood urea nitrogen level at 20 mg/kg, po administered via gavage once daily for 2 weeks (reference value: 9.88 +/- 1.21 mM); type: functional
Mus musculus [5] = experiment: (§1) Nephroprotective activity against adenine and potassium oxonate-induced hyperuricemia Kunming mouse model assessed as reduction in renal tubule dilation at 20 mg/kg, po administered via gavage and measured after 21 days by hematoxylin-eosin and Masson trichrome staining based optical microscopic analysis; type: functional, organism-based; conditions: time 21.0 day
Mus musculus [6] = experiment: (§2) Nephroprotective activity against adenine and potassium oxonate-induced hyperuricemia Kunming mouse model assessed as reduction in cytoplasmic vacuolation of renal tubular epithelial cells at 20 mg/kg, po administered via gavage and measured after 21 days by hematoxylin-eosin and Masson trichrome staining based optical microscopic analysis; type: functional, organism-based; conditions: time 21.0 day
Mus musculus [7] = experiment: as §2, with “appearance” for “reduction in cytoplasmic vacuolation”, “clear” for “renal”, “structures” for “epithelial cells”; type: functional, organism-based; conditions: time 21.0 day
Mus musculus [8] = experiment: as §1, with “connective tissue hyperplasia” for “renal tubule dilation”; type: functional, organism-based; conditions: time 21.0 day
Mus musculus [9] = experiment: as §1, with “neutrophils infiltrations” for “renal tubule dilation”; type: functional, organism-based; conditions: time 21.0 day
Mus musculus [10] = experiment: as §1, with “tubular-interstitial lesion development” for “renal tubule dilation”; type: functional, organism-based; conditions: time 21.0 day

For `COC(=O)C1=COC(OC(=O)Nc2ccc(C)cc2)[C@@H]2C(COC(=O)Nc3ccc(C)cc3)=CC[C@H]12` (stereo partly specified), the IC50 [1] was 73.6 µM.

For `CC(=O)OCC1=CC[C@@H]2C(C(=O)Oc3cccc(C#N)c3)=CO[C@@H](O[C@@H]3O[C@H](COC(C)=O)[C@@H](OC(C)=O)[C@H](OC(C)=O)[C@H]3OC(C)=O)[C@H]12`, the IC50 [1] was 5.15 µM.

`CC(=O)OCC1=CC[C@@H]2C(C(=O)Sc3ccncc3)=CO[C@@H](O[C@@H]3O[C@H](COC(C)=O)[C@@H](OC(C)=O)[C@H](OC(C)=O)[C@H]3OC(C)=O)[C@H]12` showed an IC50 [1] of 20.5 µM.

`CC(=O)OCC1=CC[C@@H]2C(C(=O)Nc3ccc(Br)c4ccccc34)=CO[C@@H](O[C@@H]3O[C@H](COC(C)=O)[C@@H](OC(C)=O)[C@H](OC(C)=O)[C@H]3OC(C)=O)[C@H]12` showed an IC50 [1] of 4.14 µM, an Activity (Mus musculus [2]) of 242.83 µM and an Activity (Mus musculus [3]) of 57.83 µM. For the same molecule, the Activity (Mus musculus [4]) was 6.02 mM, the Activity (Mus musculus [5]) was “Active” and the Activity (Mus musculus [6]) was “Active”. The Activity (Mus musculus [7]) was “Active”, the Activity (Mus musculus [8]) was “Active” and the Activity (Mus musculus [9]) was “Active”. The Activity (Mus musculus [10]) was “Active”.

`CCNC(=O)OCC1=CC[C@@H]2C(C(=O)OC)=COC(OC(=O)NCC)[C@H]12` (stereo partly specified) gave an IC50 [1] of 61.2 µM.

For `CC(C)CC(=O)OCC1=CC[C@@H]2C(C(=O)O)=CO[C@@H](O[C@@H]3O[C@H](COC(=O)CC(C)C)[C@@H](OC(=O)CC(C)C)[C@H](OC(=O)CC(C)C)[C@H]3OC(=O)CC(C)C)[C@H]12`, the IC50 [1] was 69.7 µM.

In the case of `COC(=O)C1=COC(OC(=O)NC(C)(C)C)[C@@H]2C(COC(=O)NC(C)(C)C)=CC[C@H]12` (stereo partly specified), the IC50 [1] is reported as 104 µM.

In the case of `CC(=O)OCC1=CC[C@@H]2C(C(=O)Nc3nn[nH]n3)=CO[C@@H](O[C@@H]3O[C@H](COC(C)=O)[C@@H](OC(C)=O)[C@H](OC(C)=O)[C@H]3OC(C)=O)[C@H]12`, the IC50 [1] is reported as 63.9 µM.

Work on `CC(=O)OCC1=CC[C@@H]2C(C(=O)Nn3cccc3)=CO[C@@H](O[C@@H]3O[C@H](COC(C)=O)[C@@H](OC(C)=O)[C@H](OC(C)=O)[C@H]3OC(C)=O)[C@H]12` yielded an IC50 [1] of 2.15 µM, an Activity (Mus musculus [2]) of 263.03 µM and an Activity (Mus musculus [3]) of 65.57 µM. For the same molecule, the Activity (Mus musculus [4]) was 6.42 mM, the Activity (Mus musculus [5]) was “Active” and the Activity (Mus musculus [6]) was “Active”. For the same molecule, the Activity (Mus musculus [7]) was “Active”, the Activity (Mus musculus [8]) was “Active” and the Activity (Mus musculus [9]) was “Active”. For the same molecule, the Activity (Mus musculus [10]) was “Active”.

In the case of `CC(=O)OCC1=CC[C@@H]2C(C(=O)SC3=NCCS3)=CO[C@@H](O[C@@H]3O[C@H](COC(C)=O)[C@@H](OC(C)=O)[C@H](OC(C)=O)[C@H]3OC(C)=O)[C@H]12`, the IC50 [1] is reported as 12.6 µM.

Molecule `COC(=O)C1=COC(O)[C@@H]2C(CO)=CC[C@H]12` (stereo partly specified) has an IC50 [1] of 93.4 µM.

With `CC(=O)OCC1=CC[C@@H]2C(C(=O)Sc3ncc[nH]3)=CO[C@@H](O[C@@H]3O[C@H](COC(C)=O)[C@@H](OC(C)=O)[C@H](OC(C)=O)[C@H]3OC(C)=O)[C@H]12` the IC50 [1] was 87.5 µM.

`CC(=O)OCC1=CC[C@@H]2C(C(=O)Oc3cncc4ccccc34)=CO[C@@H](O[C@@H]3O[C@H](COC(C)=O)[C@@H](OC(C)=O)[C@H](OC(C)=O)[C@H]3OC(C)=O)[C@H]12` gave an IC50 [1] of 30.7 µM.

Work on `COC(=O)C1=COC(OC(=O)NCCCCl)[C@@H]2C(COC(=O)NCCCCl)=CC[C@H]12` (stereo partly specified) yielded an IC50 [1] of 48.8 µM.

`CCC(=O)OCC1=CC[C@@H]2C(C(=O)O)=CO[C@@H](O[C@@H]3O[C@H](COC(=O)CC)[C@@H](OC(=O)CC)[C@H](OC(=O)CC)[C@H]3OC(=O)CC)[C@H]12` gave an IC50 [1] of 48.8 µM.

With `CC(=O)OCC1=CC[C@@H]2C(C(=O)SCc3ccccc3)=CO[C@@H](O[C@@H]3O[C@H](COC(C)=O)[C@@H](OC(C)=O)[C@H](OC(C)=O)[C@H]3OC(C)=O)[C@H]12` the IC50 [1] was 181 µM.

`CC(=O)OCC1=CC[C@@H]2C(C(=O)Nn3ncc4ccccc43)=CO[C@@H](O[C@@H]3O[C@H](COC(C)=O)[C@@H](OC(C)=O)[C@H](OC(C)=O)[C@H]3OC(C)=O)[C@H]12` showed an IC50 [1] of 22.8 µM.

With `CC(C)(C)C(=O)OCC1=CC[C@@H]2C(C(=O)O)=CO[C@@H](O[C@@H]3O[C@H](COC(=O)C(C)(C)C)[C@@H](OC(=O)C(C)(C)C)[C@H](OC(=O)C(C)(C)C)[C@H]3OC(=O)C(C)(C)C)[C@H]12` the IC50 [1] was 91.2 µM.

In the case of `CC(=O)OCC1=CC[C@@H]2C(C(=O)Nc3cccc(F)c3)=CO[C@@H](O[C@@H]3O[C@H](COC(C)=O)[C@@H](OC(C)=O)[C@H](OC(C)=O)[C@H]3OC(C)=O)[C@H]12`, the IC50 [1] is reported as 28.8 µM.

`COC(=O)C1=COC(OC(=O)Nc2ccc(OC)cc2)[C@@H]2C(COC(=O)Nc3ccc(OC)cc3)=CC[C@H]12` (stereo partly specified) was tested, and the IC50 [1] was 12.8 µM.

`CC(=O)OCC1=CC[C@@H]2C(C(=O)Nc3ccc(C(=O)NCC(=O)O)cc3)=CO[C@@H](O[C@@H]3O[C@H](COC(C)=O)[C@@H](OC(C)=O)[C@H](OC(C)=O)[C@H]3OC(C)=O)[C@H]12` gave an IC50 [1] of 73.6 µM.

`CC(=O)OCC1=CC[C@@H]2C(C(=O)Sc3cccs3)=CO[C@@H](O[C@@H]3O[C@H](COC(C)=O)[C@@H](OC(C)=O)[C@H](OC(C)=O)[C@H]3OC(C)=O)[C@H]12` gave an IC50 [1] of 22.8 µM.

With `COC(=O)C1=COC(OC(=O)NC2CCCCC2)[C@@H]2C(COC(=O)NC3CCCCC3)=CC[C@H]12` (stereo partly specified) the IC50 [1] was 281 µM.

`CC(=O)OCC1=CC[C@@H]2C(C(=O)NCCC#N)=CO[C@@H](O[C@@H]3O[C@H](COC(C)=O)[C@@H](OC(C)=O)[C@H](OC(C)=O)[C@H]3OC(C)=O)[C@H]12` was tested, and the IC50 [1] was 15.8 µM.

Work on `CC(=O)OCC1=CC[C@@H]2C(C(=O)Nc3cccc4[nH]ccc34)=CO[C@@H](O[C@@H]3O[C@H](COC(C)=O)[C@@H](OC(C)=O)[C@H](OC(C)=O)[C@H]3OC(C)=O)[C@H]12` yielded an IC50 [1] of 17.5 µM.

For `CC(=O)OCC1=CC[C@@H]2C(C(=O)Nc3ccc(C(=O)O)cc3)=CO[C@@H](O[C@@H]3O[C@H](COC(C)=O)[C@@H](OC(C)=O)[C@H](OC(C)=O)[C@H]3OC(C)=O)[C@H]12`, the IC50 [1] was 32.4 µM.

`CC(=O)OCC1=CC[C@@H]2C(C(=O)Nc3cncc4ccccc34)=CO[C@@H](O[C@@H]3O[C@H](COC(C)=O)[C@@H](OC(C)=O)[C@H](OC(C)=O)[C@H]3OC(C)=O)[C@H]12` was tested, and the IC50 [1] was 18.5 µM.

For `CC(=O)OCC1=CC[C@@H]2C(C(=O)O)=CO[C@@H](O[C@@H]3O[C@H](COC(C)=O)[C@@H](OC(C)=O)[C@H](OC(C)=O)[C@H]3OC(C)=O)[C@H]12`, the IC50 [1] was 35.3 µM.

For `CC(=O)OCC1=CC[C@@H]2C(C(=O)Nc3ccc(C#N)cc3)=CO[C@@H](O[C@@H]3O[C@H](COC(C)=O)[C@@H](OC(C)=O)[C@H](OC(C)=O)[C@H]3OC(C)=O)[C@H]12`, the IC50 [1] was 1.86 µM, the Activity (Mus musculus [2]) was 244.57 µM and the Activity (Mus musculus [3]) was 89.09 µM. The Activity (Mus musculus [4]) was 7.29 mM, the Activity (Mus musculus [5]) was “Active” and the Activity (Mus musculus [6]) was “Active”. For the same molecule, the Activity (Mus musculus [7]) was “Active”, the Activity (Mus musculus [8]) was “Active” and the Activity (Mus musculus [9]) was “Active”. The Activity (Mus musculus [10]) was “Active”.

`COC(=O)C1=COC(OC(=O)Nc2cccc(C)c2)[C@@H]2C(COC(=O)Nc3cccc(C)c3)=CC[C@H]12` (stereo partly specified) was tested, and the IC50 [1] was 140 µM.

`COC(=O)C1=CO[C@@H](O[C@@H]2O[C@H](CO)[C@@H](O)[C@H](O)[C@H]2O)[C@H]2[C@@H]1CC1OC12CO` (stereo partly specified) gave an IC50 [1] of 165 µM.

Molecule `COC(=O)C1=COC(OC(=O)NC(C)C)[C@@H]2C(COC(=O)NC(C)C)=CC[C@H]12` (stereo partly specified) has an IC50 [1] of 80.2 µM.

With `CC(=O)OCC1=CC[C@@H]2C(C(=O)Oc3ccncc3)=CO[C@@H](O[C@@H]3O[C@H](COC(C)=O)[C@@H](OC(C)=O)[C@H](OC(C)=O)[C@H]3OC(C)=O)[C@H]12` the IC50 [1] was 9.15 µM.

Molecule `CC(=O)OCC1=CC[C@@H]2C(C(=O)Nc3ccccc3-c3ccccc3)=CO[C@@H](O[C@@H]3O[C@H](COC(C)=O)[C@@H](OC(C)=O)[C@H](OC(C)=O)[C@H]3OC(C)=O)[C@H]12` has an IC50 [1] of 75.5 µM.

`CC(=O)OCC1=CC[C@@H]2C(C(=O)On3cccn3)=CO[C@@H](O[C@@H]3O[C@H](COC(C)=O)[C@@H](OC(C)=O)[C@H](OC(C)=O)[C@H]3OC(C)=O)[C@H]12` gave an IC50 [1] of 8.74 µM.

For `O=C(O)C1=CO[C@@H](O[C@@H]2O[C@H](CO)[C@@H](O)[C@H](O)[C@H]2O)[C@@H]2C(CO)=CC[C@H]12` [GENIPOSIDIC ACID], the IC50 [1] was 62.2 µM.

`CC(=O)OCC1=CC[C@@H]2C(C(=O)NCc3ccncc3)=CO[C@@H](O[C@@H]3O[C@H](COC(C)=O)[C@@H](OC(C)=O)[C@H](OC(C)=O)[C@H]3OC(C)=O)[C@H]12` was tested, and the IC50 [1] was 36.6 µM.

Work on `CCCC(=O)OCC1=CC[C@@H]2C(C(=O)O)=CO[C@@H](O[C@@H]3O[C@H](COC(=O)CCC)[C@@H](OC(=O)CCC)[C@H](OC(=O)CCC)[C@H]3OC(=O)CCC)[C@H]12` yielded an IC50 [1] of 55.7 µM.

Molecule `COC(=O)C1=COC(OC(=O)Nc2ccccc2Br)[C@@H]2C(COC(=O)Nc3ccccc3Br)=CC[C@H]12` (stereo partly specified) has an IC50 [1] of 23.9 µM.
